From US20240197755A1, “Pharmaceutical composition for use in the therapeutic treatment of cancer and complications of cancer” (priority 2016, published 2024)

Legend:
DU-145 (prostate cancer) = test: Antiproliferative effect on DU-145 cell line, 72 h exposure; type: cell-based, human; settings: DU-145, 72 hours of exposure
Excerpt: (§1) Different human Hep3B (hepatocellular carcinoma), MCF-7 (breast cancer), DU-145 (prostate cancer) cell lines were studied. They were selected on the basis of their ability to overexpress at least one protein from among reptin, pontin, and survivin. The stromal cells were also studied in order to determine the impact of the composition according to the invention in the tumor microenvironment. These cells were maintained in DMEM and supplemented with 10% fetal bovine serum (FBS) and 1% antibiotic-antimycotic solution (MSP) containing penicillin, streptomycin, and amphotericin B under standard growth conditions (5% CO2, 37° C., humidified atmosphere). The compositions above were dissolved and diluted in DMSO.
(§2) The cells above were treated with increasing solutions for 72 h in complete cell media. All treatment and control protocols were prepared as described previously.

HCCLM3 cells = settings: cited from earlier work
[1] = test system: Hep3B (hepatocellular carcinoma); test: Antiproliferative effect on Hep3B cell line, 72 h exposure; type: cell-based, human; settings: 72 hours of exposure
Excerpt: as §1, §2

[2] = rats, oral, 50 mg/kg, 18 consecutive days; cited from earlier work
MCF-7 (breast cancer) = test: Antiproliferative effect on MCF-7 cell line, 72 h exposure; type: cell-based, human; settings: MCF-7, 72 hours of exposure
Excerpt: as §1, §2

U251/AMD cells = settings: cited from earlier work

Structure (SMILES) | antiproliferative effect (DU-145 (prostate cancer)) | expression of the BDNF protein (HCCLM3 cells; HCCLM3 cells) | cell proliferation of HCCLM3 cells (HCCLM3 cells; as a function of concentration and time) | antiproliferative effect [1] | mortality and systemic toxicity [2] | antiproliferative effect (MCF-7 (breast cancer)) | IC50 of U251/AMD cells (U251/AMD cells; AMD, with beta-elemene) [µg/mL] | intracellular accumulation of AMD (U251/AMD cells; U251/AMD cells)
C=C(C)[C@@H]1CC[C@]2(C)CC[C@]3(C)[C@H](CC[C@@H]4[C@@]5(C)CC[C@H](O)C(C)(C)[C@@H]5CC[C@]43C)[C@@H]12 [lupeol] | more pronounced antiproliferative effect | marked decrease | inhibits cell proliferation | more pronounced antiproliferative effect | neither mortality nor systemic toxicity | more pronounced antiproliferative effect | – | –
O=CC=Cc1ccccc1O [2-hydroxycinnamaldehyde] | more pronounced antiproliferative effect | – | – | more pronounced antiproliferative effect | – | more pronounced antiproliferative effect | – | –
C=C[C@]1(C)CC[C@@H](C(=C)C)C[C@H]1C(=C)C [Composition 13-elemene, beta-elemene] | – | – | – | – | – | – | 0.051 | increases the intracellular accumulation of AMD
